According to patent publication US8247211B2, “Glycopeptide antibiotics” (American Cyanamid Company, priority 2001, dated 2012):

Key:
[1] = type: in vivo; details: mice, 20 mg/kg intravenously daily for 9 days, serum on day 10
Description: 20-day-old CD-1 mice were divided into a vehicle control group (5 mice) and a treatment group (5 mice). Samples of glycopeptide antibiotics were administered at 20 mg/kg intravenously daily for 9 days. Animals were necropsied on day 10 Sera were analyzed for BUN (blood urea nitrogen), creatinine, AST (aspartic aminotransferase), and ALT (alanine aminotransferase) by routine, standard, automated methods using an Hitachi 747 chemistry analyzer.

[2] = Anatomic pathology (heart and kidney histopathology) in mice; type: in vivo, CD-1 mice; details: 20 mg/kg intravenously daily for 9 days, microscopic histopathology on day 10
Summary of the method: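 Histopathology on H&E-stained, paraffin-embedded sections, subjectively scored (slight, mild, moderate, marked, severe) relative to untreated controls. Dosing: glycopeptide antibiotics 20 mg/kg intravenously once daily ×9 days in 20-day-old CD-1 mice, n=5 per group including vehicle.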

[3] = test system: Staphylococcus aureus-SMITH (GC 4543); test: Acute lethal infection in mice (ED50); type: in vivo; details: female CD-1 mice, intraperitoneal challenge, intravenous dose 30 min. after infection, 7 day survival ratios
Summary of the method: (§1)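 IP bacterial challenge, female CD-1 mice; inoculum lethal to untreated controls in 24-48 hr. IV dosing in saline or 5% dextrose 30 min post-infection, 5 mice/dose. ED50 from 7-day survival, 3 tests pooled.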

[4] = test system: Enterococcus faecalis (GC 6189), vancomycin resistant strain; test: Acute lethal infection in mice (ED50); type: in vivo; details: female CD-1 mice, intraperitoneal challenge, intravenous dose 30 min. after infection, 7 day survival ratios
Summary of the method: as §1

[5] = test system: Staphylococcus sp.; test: In vitro antibacterial evaluation: minimum inhibitory concentration (MIC), broth dilution method; type: cell-based; details: for MIC Staphylococcus aureus-SMITH (GC 4543): strain GC 4543; for MIC Staphylococcus haemolyticus (GC 4546): strain GC 4546; for MIC Coagulase Negative Staphylococcus (GC 4547): strain GC 4547; for MIC Coagulase Negative Staphylococcus (GC 4548): strain GC 4548; for MIC Coagulase Negative Staphylococcus (GC 4549): strain GC 4549; for MIC Coagulase Negative Staphylococcus (GC 4551): strain GC 4551; for MIC Coagulase Negative Staphylococcus (GC 6257): strain GC 6257
Summary of the method: (§2)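 Values are minimum inhibitory concentrations, meaning the smallest antibiotic concentration that stops growth of the organism. They come from broth dilution in Muller-Hinton II […] per NCCLS guidance (M7-A2), using 5×10^5 CFU/mL and concentrations from 64 to 0.06 μg/mL.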

[6] = test system: Enterococcus sp.; test: as above; type: cell-based; details: broth dilution, 5×10^5 CFU/mL, 18 hours at 35° C.
Summary of the method: as §2

[7] = test system: Escherichia coli; test: as above; type: cell-based; details: 5×10^5 CFU/mL, 18 hours at 35° C.
Summary of the method: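 Inoculum: 5×10^5 CFU/mL. Range: 64-0.06 μg/mL. Medium: Muller-Hinton II […]; NCCLS M7-A2 broth dilution. Endpoint: lowest concentration inhibiting growth. Strains include methicillin-, penicillin- and/or vancomycin-resistant clinical isolates.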

[8] = test system: Streptococcus sp.; test: as above; type: cell-based; details: broth dilution, 5×10^5 CFU/mL, 18 hours at 35° C.
Summary of the method: as §2

[9] = broth dilution, 18 hours at 35° C.

CC(c1ccccc1)C1NC(=O)CNC(=O)C(CO)NC(=O)C(C(O)C2CNC(=N)N2C2OC(CO)C(O)C(O)C2O)NC(=O)C(C(O)C2CNC(=N)N2)NC(=O)C(Cc2ccc(OC3OC(CO)C(OC4OC5COC(Cc6ccccc6)OC5C(O)C4O)C(O)C3O)cc2)NC1=O (stereo not drawn) [Example 102, Cyclo[glycyl-β-methylphenylalanyl-O-[4-O-(4,6-O-phenethylidenehexopyranosyl)-hexopyranosyl]tyrosyl-3-(2-iminoimidazoliclin-4-yl)seryl-3-(3-hexopyranosyl-2-iminoimidazolidin-4-yl)serylseryl]]
0.5 to 1 µg/mL: MIC Staphylococcus aureus (GC 4542) ([5]; strain GC 4542) | MIC Staphylococcus aureus-SMITH (GC 4543) ([5]; 18 hours at 35° C.) | MIC Staphylococcus aureus-SMITH (GC 4543) [5, 9] | MIC Staphylococcus aureus (GC 4545) ([5]; strain GC 4545) | MIC Staphylococcus haemolyticus (GC 4546) [5] | MIC Staphylococcus haemolyticus (GC 4546) [5, 9] | MIC Coagulase Negative Staphylococcus (GC 4548) [5] | MIC Coagulase Negative Staphylococcus (GC 4548) [5, 9] | MIC Coagulase Negative Staphylococcus (GC 4549) [5] | MIC Coagulase Negative Staphylococcus (GC 4549) [5, 9] | MIC Escherichia coli (GC 4560) [7]
1 µg/mL: MIC Staphylococcus aureus (GC 3051) ([5]; strain GC 3051) | MIC Coagulase Negative Staphylococcus (GC 4547) [5] | MIC Coagulase Negative Staphylococcus (GC 4547) [5, 9]
<0.06 µg/mL: MIC Streptococcus pneumoniae (GC 1894) [8] | MIC Streptococcus pneumonine (ATCC 6301) [8]
2 to 4 µg/mL: MIC Enterococccus avium (GC 4558) [6] | MIC Enterococccus faecalis (ATCC 29212) [6] | MIC Enterococccus faecalis (GC 2691) [6] | MIC Enterococccus faecalis (GC 3059) [6] | MIC Enterococccus faecalis (GC 4552) [6] | MIC Enterococccus faecalis (GC 4553) [6] | MIC Enterococccus faecalis (GC 4554) [6] | MIC Enterococccus faecalis (GC 6189) [6] | MIC Enterococccus faecium (GC 2243) [6] | MIC Enterococccus faecium (GC 4556) [6] | MIC Enterococcus faecalis (GC 2242) [6]
+++: Anatomical Pathology (Day 10), Heart [2] | Anatomical Pathology (Day 10), Kidney [2]
0.23-0.43: median effective dose (ED50), Staphylococcus aureus-SMITH (GC 4543) [3]
1 to 2 µg/mL: MIC Staphylococcus aureus (ATCC 29213) ([5]; strain ATCC 29213) | MIC Staphylococcus aureus (GC 3053) ([5]; strain GC 3053) | MIC Staphylococcus aureus (GC 4541) ([5]; strain GC 4541) | MIC Staphylococcus aureus (GC 4544) ([5]; strain GC 4544) | MIC Coagulase Negative Staphylococcus (GC 4551) [5] | MIC Coagulase Negative Staphylococcus (GC 4551) [5, 9] | MIC Enterococccus faecium (GC 4557) [6]
1.04 mg/kg: median effective dose (ED50), Enterococcus faecalis (GC 6189) [4]
+100%: Clinical Chemistry (Day 10) % of Control, Creatinine [1]
0.5 µg/mL: MIC Coagulase Negative Staphylococcus (GC 6257) [5] | MIC Coagulase Negative Staphylococcus (GC 6257) [5, 9]
+340%: Clinical Chemistry (Day 10) % of Control, AST [1]
2 µg/mL: MIC Staphylococcus aureus (GC 1131) ([5]; strain GC 1131)
